Results as given in ChEMBL document CHEMBL6134843, “HDAC11 Inhibition as a Potential Therapeutic Strategy for AML: Target Identification, Lead Discovery, Antitumor Potency, and Mechanism Investigation” (J Med Chem, 2025).
Calls of active or inactive are those of the source. The rule behind the calls is not given here.

Columns and labels:
[1] = test system: MOLM-13; test: Antiproliferative activity against human MOLM-13 cells assessed as cell growth inhibition incubated for 2 days by CCK-8 assay; settings: MOLM-13, 48 h
[2] = test system: U-937; test: Induction of cell apoptosis in human U-937 cells incubated for 48 hrs by Annexin V/DAPI staining based flow cytometry analysis; type: functional; settings: dose 2.5-10 µM
[3] = test system: U-937; test: Induction of cell cycle arrest in human U-937 cells assessed as accumulation of cells at G1 phase at 5 uM incubated for 48 hrs by EdU/DAPI staining based flow cytometry analysis; type: functional
[4] = Induction of cell apoptosis in human OCI-AML-3 cells at 5 uM incubated for 48 hrs by Annexin V/DAPI staining based flow cytometry analysis relative to control; type: functional
[5] = test system: U-937; test: Effect on MYC gene expression in human U-937 cells at 10 uM incubated for 48 hrs by RT-qPCR; type: functional, cell-based
[6] = test system: U-937; test: Effect on TP53 gene expression in human U-937 cells at 10 uM incubated for 48 hrs by RT-qPCR; type: functional, cell-based
[7] = test system: U-937; test: Effect on WT1 gene expression in human U-937 cells at 10 uM incubated for 48 hrs by RT-qPCR; type: functional, cell-based
[8] = test system: OCI-AML2; test: Induction of ferroptosis in human OCI-AML2 cells assessed as increase in lipid peroxidation accumulation at 100 uM incubated for 48 hrs by C11-BODIPY 581/591 staining based flow cytometry analysis; type: functional, cell-based
[9] = test system: Acute myeloid leukemic cell; test: Induction of ferroptosis in human Acute myeloid leukemic cells assessed as upregulation of HMOX1 mRNA level by RT-qPCR analysis; type: functional, cell-based
[10] = test system: Acute myeloid leukemic cell; test: Induction of ferroptosis in human Acute myeloid leukemic cells assessed as upregulation of TF protein level at 2.5 to 10 uM by Western blot analysis; type: functional, cell-based; settings: dose 2.5-10 µM
[11] = test system: Acute myeloid leukemic cell; test: Induction of ferroptosis in human Acute myeloid leukemic cells assessed as upregulation of FTH1 protein level at 2.5 to 10 uM by Western blot analysis; type: functional, cell-based; settings: dose 2.5-10 µM
[12] = test system: U-937; test: Induction of ferroptosis in human U-937 cells assessed as increase in ferrous ion accumulation at 5 uM incubated for 48 hrs by RhoNox-1 staining based flow cytometry analysis; type: functional, cell-based
[13] = test system: Acute myeloid leukemic cell; test: Induction of ferroptosis in human Acute myeloid leukemic cells assessed as increase in ACSL4 level by Western blot analysis; type: functional, cell-based
[14] = test system: U-937; test: Upregulation of Nrf2 transcription level in human U-937 cells by RNA-seq analysis; type: functional, cell-based
[15] = test system: U-937; test: Upregulation of Nrf2 protein level in human U-937 cells at 2.5 to 10 uM incubated for 48 hrs by Western blot analysis; type: functional, cell-based; settings: dose 2.5-10 µM
[16] = test system: U-937; test: Upregulation of p62 […] level in human U-937 cells at 2.5 to 10 uM incubated for 48 hrs by Western blot analysis; type: functional, cell-based; settings: dose 2.5-10 µM
[17] = Tmax in ICR(CD-1) mouse at 50 mg/kg, ip treated up to 24 hrs by LC-MS/MS analysis; type: ADME, organism-based; settings: in vivo
[18] = MRT (0 to infinity) in ICR(CD-1) mouse at 5 mg/kg, iv treated up to 24 hrs by LC-MS/MS analysis; type: ADME, organism-based; settings: in vivo
[19] = Toxicity in female C57BL/6 mouse assessed as increase in survival rate at 50 mg/kg, ip administered once daily by Kaplan Mayer survival analysis; type: organism-based; settings: in vivo

Question: For O=C(NO)c1cccc2[nH]c(C#Cc3cccc(C(F)(F)F)c3)cc12, which IC50 [1] is on record?
Answer: ≤ 10 µM

Question: What about the Activity [2] of the same compound?
Answer: Dose-dependent-effect

Question: And the Activity [3]?
Answer: Dose-dependent-effect

Question: And the Activity [4]?
Answer: ~20%

Question: And the Activity [5]?
Answer: Active

Question: What about the Activity [6] of the same compound?
Answer: Active

Question: What about the Activity [7] of the same compound?
Answer: Active

Question: What about the Activity [8] of the same compound?
Answer: Active

Question: And the Activity [9]?
Answer: Active

Question: What about the Activity [10] of the same compound?
Answer: Active

Question: And the Activity [11]?
Answer: Active

Question: What about the Activity [12] of the same compound?
Answer: Active

Question: What about the Activity [13] of the same compound?
Answer: Active

Question: And the Activity [14]?
Answer: inactive

Question: What about the Activity [15] of the same compound?
Answer: Active

Question: And the Activity [16]?
Answer: Active

Question: What about the Tmax [17] of the same compound?
Answer: 4.8 min

Question: And the MRT inf [18]?
Answer: 76.2 min

Question: What about the Activity [19] of the same compound?
Answer: Non-toxic
